2 compounds from ChEMBL document CHEMBL6096706, “Discovery of WDR5-MLL1 and HDAC Dual-Target Inhibitors for the Treatment of Acute Myeloid Leukemia” (J Med Chem, 2025) can be followed below.

Structures are written as SMILES.

Series [1] has as its system MV4-11. Briefly: Induction of apoptosis in human MV4-11 cells assessed as necrotic cells at 200 nM incubated for 72 hrs by Annexin V/PI staining based flow cytometry analysis (reference value: 2.61%). It is filed as functional. In general terms: A flow cytometer gives signals particle by particle.
Series [2] concerns MV4-11. Briefly: Induction of apoptosis in human MV4-11 cells assessed as viable cells at 200 nM incubated for 72 hrs in presence of vorinostat by Annexin V/PI staining based flow cytometry analysis (reference value: 96.68%). It is filed as functional. Particulars: read-out: Activity.
Series [3] relates to MV4-11. Briefly: Antiproliferative activity against human MV4-11 cells assessed as growth inhibition at 0.5 uM measured after 72 hrs by CellTiterGlo assay. Format: functional. Particulars: read-out: GI. (ATP-based viability assays read luminescence as a measure of living cells.)
Series [4] deals with MV4-11. Briefly: Antiproliferative activity against human MV4-11 cells assessed as growth inhibition at 2 uM measured after 72 hrs in presence of 0.5 uM of vorinostat by CellTiterGlo assay. It is filed as functional. Particulars: read-out: GI.
For series [5], the system named is MV4-11. Briefly: Induction of apoptosis in human MV4-11 cells assessed as viable cells at 200 nM incubated for 72 hrs by Annexin V/PI staining based flow cytometry analysis (reference value: 96.68%). It is filed as functional. Particulars: read-out: Activity.
Series [6] has as its system MV4-11. Briefly: Antiproliferative activity against human MV4-11 cells assessed as growth inhibition at 0.1 uM measured after 72 hrs in presence of 1 uM of vorinostat by CellTiterGlo assay. Format: functional. The following applies: read-out: GI.
Series [7] has as its system MV4-11. Briefly: Antiproliferative activity against human MV4-11 cells assessed as growth inhibition at 0.05 uM measured after 72 hrs in presence of 0.2 uM of vorinostat by CellTiterGlo assay. Format: functional. The following applies: read-out: GI.
Series [8] deals with MV4-11. Briefly: Induction of apoptosis in human MV4-11 cells assessed as early apoptotic cells at 600 nM incubated for 72 hrs in presence of vorinostat by Annexin V/PI staining based flow cytometry analysis (reference value: 0.76 %). It is filed as functional.
For series [9], the system named is MV4-11. Briefly: Antiproliferative activity against human MV4-11 cells assessed as growth inhibition at 0.4 uM measured after 72 hrs by CellTiterGlo assay. Particulars: read-out: GI. It is filed as functional.
Series [10] concerns MV4-11. Briefly: Antiproliferative activity against human MV4-11 cells assessed as growth inhibition at 1 uM measured after 72 hrs in presence of 0.4 uM of vorinostat by CellTiterGlo assay. Particulars: read-out: GI. It is filed as functional.
Series [11] deals with MV4-11. Kind of series: Induction of apoptosis in human MV4-11 cells assessed as necrotic cells at 400 nM incubated for 72 hrs in presence of vorinostat by Annexin V/PI staining based flow cytometry analysis (reference value: 2.61%). Format: functional.
The subject of series [12] is MV4-11. Briefly: Antiproliferative activity against human MV4-11 cells assessed as growth inhibition at 1 uM measured after 72 hrs by CellTiterGlo assay. Format: functional. Particulars: read-out: GI.
Series [13] deals with MV4-11. Kind of series: Antiproliferative activity against human MV4-11 cells assessed as growth inhibition at 0.05 uM measured after 72 hrs in presence of 1 uM of vorinostat by CellTiterGlo assay. It is filed as functional. Particulars: read-out: GI.
The subject of series [14] is MV4-11. Briefly: Antiproliferative activity against human MV4-11 cells assessed as growth inhibition at 0.4 uM measured after 72 hrs in presence of 0.1 uM of vorinostat by CellTiterGlo assay. Particulars: read-out: GI. Format: functional.
Series [15] concerns MV4-11. Kind of series: Antiproliferative activity against human MV4-11 cells assessed as growth inhibition at 0.2 uM measured after 72 hrs in presence of 1 uM of vorinostat by CellTiterGlo assay. Format: functional. Particulars: read-out: GI.
The test system of series [16] is MV4-11. Kind of series: Antiproliferative activity against human MV4-11 cells assessed as growth inhibition at 2 uM measured after 72 hrs in presence of 0.05 uM of vorinostat by CellTiterGlo assay. It is filed as functional. Particulars: read-out: GI.
Series [17] has as its system MV4-11. Kind of series: Antiproliferative activity against human MV4-11 cells assessed as growth inhibition at 0.05 uM measured after 72 hrs in presence of 0.4 uM of vorinostat by CellTiterGlo assay. Format: functional. The following applies: read-out: GI.
The subject of series [18] is MV4-11. Briefly: Antiproliferative activity against human MV4-11 cells assessed as growth inhibition at 0.4 uM measured after 72 hrs in presence of 1 uM of vorinostat by CellTiterGlo assay. The following applies: read-out: GI. It is filed as functional.
Series [19] deals with MV4-11. Briefly: Antiproliferative activity against human MV4-11 cells assessed as growth inhibition at 0.05 uM measured after 72 hrs by CellTiterGlo assay. Format: functional. The following applies: read-out: GI.
Series [20] has as its system MV4-11. Briefly: Induction of apoptosis in human MV4-11 cells assessed as viable cells at 400 nM incubated for 72 hrs in presence of vorinostat by Annexin V/PI staining based flow cytometry analysis (reference value: 96.68%). It is filed as functional. Particulars: read-out: Activity.
Series [21] relates to MV4-11. Briefly: Antiproliferative activity against human MV4-11 cells assessed as growth inhibition at 1 uM measured after 72 hrs in presence of 0.1 uM of vorinostat by CellTiterGlo assay. It is filed as functional. The following applies: read-out: GI.
Series [22] deals with MV4-11. Briefly: Antiproliferative activity against human MV4-11 cells assessed as growth inhibition at 0.1 uM measured after 72 hrs in presence of 0.2 uM of vorinostat by CellTiterGlo assay. It is filed as functional. Particulars: read-out: GI.
Series [23] has as its system MV4-11. Briefly: Antiproliferative activity against human MV4-11 cells assessed as growth inhibition at 0.05 uM measured after 72 hrs in presence of 0.1 uM of vorinostat by CellTiterGlo assay. It is filed as functional. Particulars: read-out: GI.
The test system of series [24] is MV4-11. Briefly: Antiproliferative activity against human MV4-11 cells assessed as growth inhibition at 2 uM measured after 72 hrs in presence of 0.1 uM of vorinostat by CellTiterGlo assay. The following applies: read-out: GI. It is filed as functional.
Series [25] deals with MV4-11. Briefly: Antiproliferative activity against human MV4-11 cells assessed as growth inhibition at 0.5 uM measured after 72 hrs in presence of 0.1 uM of vorinostat by CellTiterGlo assay. Format: functional. Particulars: read-out: GI.
Series [26] concerns MV4-11. Briefly: Induction of apoptosis in human MV4-11 cells assessed as late apoptotic cells at 600 nM incubated for 72 hrs in presence of vorinostat by Annexin V/PI staining based flow cytometry analysis (reference value: 6.42 %). It is filed as functional.
The target of series [27] is T1, Histone deacetylase 11 (Homo sapiens, UniProt Q96DB2).
T1 sequence (Q96DB2 whole entry): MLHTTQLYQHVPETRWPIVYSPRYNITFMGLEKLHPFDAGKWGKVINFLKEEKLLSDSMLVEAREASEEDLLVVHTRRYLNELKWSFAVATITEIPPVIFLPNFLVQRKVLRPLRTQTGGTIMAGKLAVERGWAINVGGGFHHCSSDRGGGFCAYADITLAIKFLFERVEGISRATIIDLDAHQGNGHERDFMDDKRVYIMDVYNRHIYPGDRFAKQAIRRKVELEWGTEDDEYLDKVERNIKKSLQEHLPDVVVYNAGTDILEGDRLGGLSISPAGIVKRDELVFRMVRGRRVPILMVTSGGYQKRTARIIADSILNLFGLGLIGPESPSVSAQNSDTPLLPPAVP
Briefly: Inhibition of HDAC11 (unknown origin) by fluorescence based assay.

Series [28] addresses Histone deacetylase 4 (Homo sapiens, UniProt P56524). Kind of series: Inhibition of HDAC4 (unknown origin) by fluorescence based assay.
A short description of series [29]: Toxicity in mouse implanted in human MV4-11 cells assessed as body weight loss at 10 to 30 mg/kg, ip administered daily for 17 days. Format: organism-based. Particulars: in vivo, 408 h, dose 10-30 mg/kg, time 17 day.
Series [30] deals with Histone-lysine N-methyltransferase 2A/WDR5 (Homo sapiens, UniProt P61964). Briefly: Inhibition of MLL1/WDR5 (unknown origin) protein-protein interaction incubated for 2 hrs by FP analysis. It is filed as protein assay.
A short description of series [31]: Toxicity in mouse implanted in human MV4-11 cells assessed as heart damage at 10 to 30 mg/kg, ip administered daily for 17 days by H and E staining based analysis. The following applies: in vivo, 408 h, dose 10-30 mg/kg, time 17 day. Format: organism-based.
Series [32] has as its system MOLM-13. Briefly: cells. Format: functional, cell-based. Particulars: Homo sapiens, MOLM-13, 72 h.
Description: Antiproliferative activity against human MOLM-13 cells assessed as inhibition of cell growth measured after 72 hrs by CellTiterGlo assay

Histone deacetylase 4, sequence (P56524 whole entry): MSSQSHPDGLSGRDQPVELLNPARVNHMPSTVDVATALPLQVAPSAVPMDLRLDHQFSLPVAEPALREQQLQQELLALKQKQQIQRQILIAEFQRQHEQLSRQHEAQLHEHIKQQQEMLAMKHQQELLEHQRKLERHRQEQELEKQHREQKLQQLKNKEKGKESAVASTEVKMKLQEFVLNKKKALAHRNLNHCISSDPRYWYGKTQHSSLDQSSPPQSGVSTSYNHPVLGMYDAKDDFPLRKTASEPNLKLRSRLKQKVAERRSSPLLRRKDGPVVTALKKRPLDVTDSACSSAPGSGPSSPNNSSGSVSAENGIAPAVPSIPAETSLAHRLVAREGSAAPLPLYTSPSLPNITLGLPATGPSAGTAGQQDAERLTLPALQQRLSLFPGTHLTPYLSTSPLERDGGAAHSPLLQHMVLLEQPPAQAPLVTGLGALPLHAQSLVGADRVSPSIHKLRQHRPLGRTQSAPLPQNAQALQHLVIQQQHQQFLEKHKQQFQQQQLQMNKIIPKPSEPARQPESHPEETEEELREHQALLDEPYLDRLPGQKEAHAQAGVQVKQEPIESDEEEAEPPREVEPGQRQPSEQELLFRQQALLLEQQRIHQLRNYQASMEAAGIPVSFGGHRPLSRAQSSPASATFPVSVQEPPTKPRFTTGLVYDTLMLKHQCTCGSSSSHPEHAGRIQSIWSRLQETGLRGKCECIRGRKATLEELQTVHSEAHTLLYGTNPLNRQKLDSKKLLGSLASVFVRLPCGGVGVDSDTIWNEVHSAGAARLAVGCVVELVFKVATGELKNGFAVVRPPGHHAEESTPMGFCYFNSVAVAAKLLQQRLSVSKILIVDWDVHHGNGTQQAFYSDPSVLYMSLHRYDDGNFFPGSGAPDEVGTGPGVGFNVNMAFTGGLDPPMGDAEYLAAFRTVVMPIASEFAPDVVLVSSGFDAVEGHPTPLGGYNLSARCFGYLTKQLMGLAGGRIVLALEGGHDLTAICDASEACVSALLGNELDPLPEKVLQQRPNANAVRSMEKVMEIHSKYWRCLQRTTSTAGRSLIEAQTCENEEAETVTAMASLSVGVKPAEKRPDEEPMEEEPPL

As to `Cc1c(F)c(N)cc(C(=O)Nc2cc(-c3ccc(C(=O)N4CCOCC4)cc3)ccc2N2CCN(C)CC2)c1Cl`, the Activity amounted to 1.62% in series [1], 69.5% in series [8], 3.05% in series [11] and 19.27% in series [26]. Besides, the viability at 0.2 µM in [2] turned out to be 57%; in series [5], 90.3%. For the same compound, the inhibition of growth at 0.5 µM was 27.5% in [3] and 51.7% in series [25]. Also, the inhibition of growth at 2 µM came to 95.2% in [4], 55.9% in series [16] and 68.6% in series [24]. Besides, the inhibition of growth at 0.1 µM in series [6] came out at 88.1%; in series [22] it was 49.3%. Also, the inhibition of growth at 0.05 µM in [7] was determined as 46.6%; in series [13], 86.7%; in [17] it was 45.1%; in series [19] it was 17.5%; in series [23] it was 34.5%. The inhibition of growth at 0.4 µM stood at 25.5% in series [9], 55% in [14] and 90.8% in series [18]. In addition, the inhibition of growth at 1 µM in series [10] was found to be 68.7%; in series [12], 40.7%; in [21] it was 57.4%. Also, the inhibition of growth at 0.2 µM in [15] amounted to 88.2%. Also, in series [20], the viability at 0.4 µM worked out at 26.1%.

Regarding `Cc1c(F)c(N)cc(C(=O)Nc2cc(-c3ccc(C(=O)NCc4ccc(/C=C/C(=O)NO)cc4)cc3)ccc2N2CCN(C)CC2)c1Cl`, the IC50 in series [27] was over 10000 nM; in series [28], 4690 nM; in series [30] it was 42 nM; in series [32], 70 nM. Also, the Activity result in series [29] and in series [31] was “Non-toxic” each time.

The term IC50 denotes the concentration that inhibits the measured activity by half.
